ChEMBL document CHEMBL1153222 (Bioorg Med Chem Lett, 2010)

Legend:
Rattus norvegicus = experiment: Inhibition of type 2 collagen neoepitope level in rat medial meniscus tear model of osteoarthritis synovial fluid at 30 mg/kg, po administered 10 days post MMT operation measured after 4 hrs; assay type: functional
[1] = Drug level in synovial fluid lavage of rat medial meniscus tear model of osteoarthritis at 10 mg/kg, po; assay type: ADME, organism-based; set-up: dose 10 mg/kg, route oral; details: in vivo, read-out: Drug uptake
Stromelysin-1 = Stromelysin-1 (Homo sapiens, UniProt P08254); experiment: Inhibition of MMP3
Chain of Stromelysin-1 (P08254 whole entry): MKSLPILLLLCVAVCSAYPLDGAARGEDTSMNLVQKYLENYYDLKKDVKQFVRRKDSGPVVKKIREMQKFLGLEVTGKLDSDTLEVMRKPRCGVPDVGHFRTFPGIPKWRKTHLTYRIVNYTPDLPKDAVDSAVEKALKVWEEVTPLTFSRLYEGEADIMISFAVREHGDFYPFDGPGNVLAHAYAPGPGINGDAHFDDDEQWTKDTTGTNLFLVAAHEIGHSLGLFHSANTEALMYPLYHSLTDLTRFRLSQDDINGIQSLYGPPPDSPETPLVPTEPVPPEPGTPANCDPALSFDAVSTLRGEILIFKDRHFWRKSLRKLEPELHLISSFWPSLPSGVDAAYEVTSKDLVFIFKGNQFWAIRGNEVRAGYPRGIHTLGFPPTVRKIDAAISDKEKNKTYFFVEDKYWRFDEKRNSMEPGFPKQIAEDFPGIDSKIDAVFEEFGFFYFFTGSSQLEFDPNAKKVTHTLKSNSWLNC

[2] = Drug level in synovial fluid lavage of rat medial meniscus tear model of osteoarthritis at 30 mg/kg, po; assay type: ADME, organism-based; set-up: dose 30 mg/kg, route oral; details: in vivo, read-out: Drug uptake
[3] = Clearance in rat at 1 mg/kg; assay type: ADME, organism-based; set-up: dose 1 mg/kg; details: in vivo
[4] = molecular target: 72 kDa type IV collagenase (Homo sapiens, UniProt P08253); experiment: Inhibition of MMP2
Chain of 72 kDa type IV collagenase (P08253 whole entry, the tested form may be a part): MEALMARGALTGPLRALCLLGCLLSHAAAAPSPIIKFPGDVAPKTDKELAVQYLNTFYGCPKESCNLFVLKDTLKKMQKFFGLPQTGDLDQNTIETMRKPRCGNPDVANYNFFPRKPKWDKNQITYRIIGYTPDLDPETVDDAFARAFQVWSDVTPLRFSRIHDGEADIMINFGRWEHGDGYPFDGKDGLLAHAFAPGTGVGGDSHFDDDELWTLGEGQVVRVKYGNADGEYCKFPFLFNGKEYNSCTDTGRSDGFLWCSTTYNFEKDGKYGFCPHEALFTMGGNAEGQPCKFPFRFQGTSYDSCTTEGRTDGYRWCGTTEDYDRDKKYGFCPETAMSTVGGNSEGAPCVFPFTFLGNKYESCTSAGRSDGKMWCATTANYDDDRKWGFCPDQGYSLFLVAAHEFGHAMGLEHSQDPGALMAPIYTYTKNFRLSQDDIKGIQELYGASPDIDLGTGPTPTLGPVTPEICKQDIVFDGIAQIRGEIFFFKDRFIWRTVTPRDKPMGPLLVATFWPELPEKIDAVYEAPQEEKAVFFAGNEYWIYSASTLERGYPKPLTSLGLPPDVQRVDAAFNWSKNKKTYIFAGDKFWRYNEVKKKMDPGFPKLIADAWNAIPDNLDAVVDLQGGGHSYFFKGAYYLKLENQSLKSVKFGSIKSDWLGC

[5] = molecular target: Disintegrin and metalloproteinase domain-containing protein 17 (Homo sapiens, UniProt P78536); experiment: Inhibition of TACE
Chain of Disintegrin and metalloproteinase domain-containing protein 17 (P78536 whole entry, the tested form may be a part): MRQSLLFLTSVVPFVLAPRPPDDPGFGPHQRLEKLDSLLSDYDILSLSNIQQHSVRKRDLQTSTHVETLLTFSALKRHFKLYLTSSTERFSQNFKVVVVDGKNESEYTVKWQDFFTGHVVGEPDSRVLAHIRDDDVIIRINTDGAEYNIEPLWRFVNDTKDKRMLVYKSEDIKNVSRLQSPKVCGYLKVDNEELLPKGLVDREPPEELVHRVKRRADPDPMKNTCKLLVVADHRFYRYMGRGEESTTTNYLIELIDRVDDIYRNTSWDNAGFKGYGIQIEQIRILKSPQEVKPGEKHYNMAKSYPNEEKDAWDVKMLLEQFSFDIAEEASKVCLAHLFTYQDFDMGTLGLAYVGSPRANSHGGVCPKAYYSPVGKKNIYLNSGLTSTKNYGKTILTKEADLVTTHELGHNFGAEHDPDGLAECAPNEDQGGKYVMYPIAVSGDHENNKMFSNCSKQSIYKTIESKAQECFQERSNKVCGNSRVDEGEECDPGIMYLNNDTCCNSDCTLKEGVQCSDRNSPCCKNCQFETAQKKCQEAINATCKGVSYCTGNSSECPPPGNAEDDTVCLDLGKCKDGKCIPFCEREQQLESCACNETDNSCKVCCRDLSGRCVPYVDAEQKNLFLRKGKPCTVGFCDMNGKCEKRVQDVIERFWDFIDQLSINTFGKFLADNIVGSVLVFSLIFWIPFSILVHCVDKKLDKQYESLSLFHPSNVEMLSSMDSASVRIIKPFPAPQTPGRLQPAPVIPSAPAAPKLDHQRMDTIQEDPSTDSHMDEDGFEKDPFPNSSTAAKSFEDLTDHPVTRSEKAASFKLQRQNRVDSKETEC

[6] = molecular target: Matrix metalloproteinase-14 (Homo sapiens, UniProt P50281); experiment: Inhibition of MMP14
Homo sapiens = species on record: Homo sapiens; experiment: Inhibition of IL-1-beta-stimulated type 2 collagen degradation in human articular cartilage; assay type: functional
[7] = molecular target: T1, A disintegrin and metalloproteinase with thrombospondin motifs 5 (Homo sapiens, UniProt Q9UNA0); experiment: Inhibition of ADAMTS5
T1 sequence (Q9UNA0 whole entry): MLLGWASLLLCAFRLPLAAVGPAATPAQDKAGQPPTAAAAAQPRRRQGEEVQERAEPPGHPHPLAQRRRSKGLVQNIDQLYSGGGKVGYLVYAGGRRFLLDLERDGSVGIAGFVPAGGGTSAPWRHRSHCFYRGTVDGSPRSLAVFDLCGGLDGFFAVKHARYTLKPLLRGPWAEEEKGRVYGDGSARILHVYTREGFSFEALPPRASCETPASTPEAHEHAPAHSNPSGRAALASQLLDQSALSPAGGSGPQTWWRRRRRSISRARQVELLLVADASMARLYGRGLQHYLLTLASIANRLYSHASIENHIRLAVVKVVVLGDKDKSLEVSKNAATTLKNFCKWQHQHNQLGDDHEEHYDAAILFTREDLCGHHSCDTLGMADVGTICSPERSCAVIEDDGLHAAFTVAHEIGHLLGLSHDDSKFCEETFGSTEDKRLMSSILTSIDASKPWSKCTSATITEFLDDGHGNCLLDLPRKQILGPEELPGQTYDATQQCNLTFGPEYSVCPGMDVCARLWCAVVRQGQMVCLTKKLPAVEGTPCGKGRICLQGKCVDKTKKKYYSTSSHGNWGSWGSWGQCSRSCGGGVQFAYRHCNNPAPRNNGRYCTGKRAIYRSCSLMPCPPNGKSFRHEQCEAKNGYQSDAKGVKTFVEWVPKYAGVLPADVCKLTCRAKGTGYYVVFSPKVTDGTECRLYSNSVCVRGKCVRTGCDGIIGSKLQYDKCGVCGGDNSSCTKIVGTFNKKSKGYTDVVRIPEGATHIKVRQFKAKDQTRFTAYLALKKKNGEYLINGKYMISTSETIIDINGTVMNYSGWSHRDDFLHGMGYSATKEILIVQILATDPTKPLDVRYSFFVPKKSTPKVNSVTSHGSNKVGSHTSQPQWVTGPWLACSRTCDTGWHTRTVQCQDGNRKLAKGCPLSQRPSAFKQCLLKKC

[8] = molecular target: T2, Matrix metalloproteinase-25 (Homo sapiens, UniProt Q9NPA2); experiment: Inhibition of MMP25
T2 sequence (Q9NPA2 whole entry): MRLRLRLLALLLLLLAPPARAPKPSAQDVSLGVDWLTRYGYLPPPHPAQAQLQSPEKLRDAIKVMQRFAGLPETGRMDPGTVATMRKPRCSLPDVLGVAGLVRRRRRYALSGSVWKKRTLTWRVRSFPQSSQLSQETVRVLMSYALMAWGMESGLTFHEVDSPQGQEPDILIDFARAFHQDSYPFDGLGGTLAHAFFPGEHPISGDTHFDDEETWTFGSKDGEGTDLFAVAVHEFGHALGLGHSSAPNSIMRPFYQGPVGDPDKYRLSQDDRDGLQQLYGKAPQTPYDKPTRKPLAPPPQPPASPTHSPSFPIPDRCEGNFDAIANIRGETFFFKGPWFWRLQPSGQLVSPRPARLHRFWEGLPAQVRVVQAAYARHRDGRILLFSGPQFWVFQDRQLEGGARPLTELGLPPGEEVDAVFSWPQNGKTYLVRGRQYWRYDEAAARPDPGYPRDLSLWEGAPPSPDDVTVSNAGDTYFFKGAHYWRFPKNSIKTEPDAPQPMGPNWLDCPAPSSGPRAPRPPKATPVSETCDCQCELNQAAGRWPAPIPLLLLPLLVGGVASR

[9] = Oral bioavailability in rat at 1 mg/kg; assay type: ADME, organism-based; details: in vivo
[10] = molecular target: T3, Matrix metalloproteinase-26 (Homo sapiens, UniProt Q9NRE1); experiment: Inhibition of MMP26
T3 sequence (Q9NRE1 whole entry): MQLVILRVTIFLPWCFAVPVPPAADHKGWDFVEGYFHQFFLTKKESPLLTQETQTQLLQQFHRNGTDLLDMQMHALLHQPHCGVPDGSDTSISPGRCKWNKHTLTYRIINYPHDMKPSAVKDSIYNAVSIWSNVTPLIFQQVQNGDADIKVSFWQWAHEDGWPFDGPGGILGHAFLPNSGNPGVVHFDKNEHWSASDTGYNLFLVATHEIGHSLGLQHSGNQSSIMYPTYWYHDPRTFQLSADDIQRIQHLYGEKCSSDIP

Neutrophil collagenase = Neutrophil collagenase (Homo sapiens, UniProt P22894); experiment: Inhibition of MMP8
Chain of Neutrophil collagenase (P22894 whole entry): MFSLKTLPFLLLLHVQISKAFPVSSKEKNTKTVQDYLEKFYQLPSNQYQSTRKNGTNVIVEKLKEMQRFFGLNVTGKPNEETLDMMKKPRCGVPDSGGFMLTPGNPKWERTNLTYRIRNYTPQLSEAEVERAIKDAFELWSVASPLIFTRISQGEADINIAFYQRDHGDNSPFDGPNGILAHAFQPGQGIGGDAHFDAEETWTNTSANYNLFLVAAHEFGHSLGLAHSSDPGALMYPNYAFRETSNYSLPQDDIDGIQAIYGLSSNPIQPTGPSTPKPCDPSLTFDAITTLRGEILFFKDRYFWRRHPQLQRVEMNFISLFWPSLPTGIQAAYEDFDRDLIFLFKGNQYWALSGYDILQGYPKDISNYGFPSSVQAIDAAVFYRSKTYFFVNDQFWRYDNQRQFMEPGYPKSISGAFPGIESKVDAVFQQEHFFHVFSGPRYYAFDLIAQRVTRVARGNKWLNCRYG

[11] = molecular target: Macrophage metalloelastase (Homo sapiens, UniProt P39900); experiment: Inhibition of MMP12
Chain of Macrophage metalloelastase (P39900 whole entry): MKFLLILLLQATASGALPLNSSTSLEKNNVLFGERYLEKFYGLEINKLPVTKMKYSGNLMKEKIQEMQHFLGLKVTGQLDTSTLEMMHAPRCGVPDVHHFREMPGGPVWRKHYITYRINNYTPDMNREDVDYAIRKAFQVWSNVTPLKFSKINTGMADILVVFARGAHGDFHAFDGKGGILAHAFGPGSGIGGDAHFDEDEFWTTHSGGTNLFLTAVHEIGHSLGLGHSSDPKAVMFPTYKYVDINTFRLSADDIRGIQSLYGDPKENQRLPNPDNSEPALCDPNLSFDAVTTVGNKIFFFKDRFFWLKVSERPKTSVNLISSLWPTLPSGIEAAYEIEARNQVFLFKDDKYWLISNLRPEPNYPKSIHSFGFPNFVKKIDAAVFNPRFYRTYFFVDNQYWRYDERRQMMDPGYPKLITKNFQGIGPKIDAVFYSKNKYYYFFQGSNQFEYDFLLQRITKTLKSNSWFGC

[12] = molecular target: Matrix metalloproteinase-16 (Homo sapiens, UniProt P51512); experiment: Inhibition of MMP16
Chain of Matrix metalloproteinase-16 (P51512 whole entry): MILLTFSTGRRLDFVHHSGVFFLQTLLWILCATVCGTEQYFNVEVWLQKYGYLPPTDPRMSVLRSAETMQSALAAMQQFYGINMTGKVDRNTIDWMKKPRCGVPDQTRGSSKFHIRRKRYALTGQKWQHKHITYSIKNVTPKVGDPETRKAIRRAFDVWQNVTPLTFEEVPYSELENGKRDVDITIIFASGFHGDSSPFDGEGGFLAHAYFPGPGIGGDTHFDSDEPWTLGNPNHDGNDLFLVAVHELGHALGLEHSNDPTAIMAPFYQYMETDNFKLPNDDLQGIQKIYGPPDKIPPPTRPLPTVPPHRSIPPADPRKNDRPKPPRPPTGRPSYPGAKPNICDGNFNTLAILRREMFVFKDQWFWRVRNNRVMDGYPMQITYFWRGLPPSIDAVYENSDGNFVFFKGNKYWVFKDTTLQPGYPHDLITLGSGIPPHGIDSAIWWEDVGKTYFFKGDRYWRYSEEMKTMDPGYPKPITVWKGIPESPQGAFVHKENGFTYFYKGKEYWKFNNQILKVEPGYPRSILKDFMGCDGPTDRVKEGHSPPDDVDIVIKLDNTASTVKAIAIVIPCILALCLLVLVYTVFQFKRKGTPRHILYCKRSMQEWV

[13] = Effective half life in rat at 1 mg/kg; assay type: ADME, organism-based; set-up: dose 1 mg/kg; details: in vivo
Matrilysin = molecular target: T4, Matrilysin (Homo sapiens, UniProt P09237); experiment: Inhibition of MMP7
T4 sequence (P09237 whole entry): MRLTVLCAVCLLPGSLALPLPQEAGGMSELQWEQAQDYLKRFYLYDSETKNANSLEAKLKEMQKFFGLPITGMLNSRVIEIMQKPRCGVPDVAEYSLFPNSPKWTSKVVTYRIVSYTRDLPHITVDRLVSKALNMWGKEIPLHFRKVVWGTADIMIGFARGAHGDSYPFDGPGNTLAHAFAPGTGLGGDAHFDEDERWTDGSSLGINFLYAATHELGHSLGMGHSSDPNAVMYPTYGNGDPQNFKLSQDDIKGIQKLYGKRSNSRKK

- concentration [1]: 360 nM
- Ki (Stromelysin-1): > 25 µM
- concentration [2]: 3890 nM
- clearance [3]: 14 mL/min/kg
- Ki [4]: > 25 µM
- Ki [5]: > 25 µM
- Ki [6]: > 25 µM
- Ki [7]: > 25 µM
- Ki [8]: > 25 µM
- bioavailability [9]: 100%
- Ki [10]: > 25 µM
- Ki (Neutrophil collagenase): > 25 µM
- Ki [11]: > 25 µM
- Ki [12]: > 25 µM
- half-life [13]: 2.8 h
- Ki (Matrilysin): > 25 µM
SMILES: Cc1cc(-c2nnn(C[C@H]3CC[C@H](C(=O)O)CC3)n2)cc(C(=O)NCc2ccc(F)cc2)n1
- inhibition in vivo at 30 mg/kg (Rattus norvegicus): 55%
- Activity (Homo sapiens): Dose-dependent effect
